# Source: US9127136B1, “Purification of monomer from recycle polyesters” (SABIC Global Technologies B.V, priority 2014, dated 2015)
# Test: Solubility of BHET in different solvents (shaken 2 hours, analyzed by HPLC)
# Assay type: physicochemical
# Experimental: Solubility of BHET in Different Solvents
# 10 ml of the designated solvent was added to a scintillation vial with 2 g of BHET. The vial was placed in a shaker, shaken for 2 hours and the contents were analyzed by HPLC.
smiles,measurement,setting,value
"O=C(OCCO)c1ccc(C(=O)OCCO)cc1 [BHET, bis(2-hydroxyethyl) terephthalate]",solubility of BHET in 45% THF/Hexanes (estimated),"solvent: 45% THF/Hexanes, estimated from 12.6% solubility in THF",5.67%
same,% Solubility (w/v),solvent: Acetone,9.09 % (w/v)
same,% Solubility (w/v),solvent: Acetonitrile,4.98 % (w/v)
same,% Solubility (w/v),solvent: DMF,60 % (w/v)
same,% Solubility (w/v),solvent: Dichloromethane,1.12 % (w/v)
same,% Solubility (w/v),solvent: Ethanol,8.61 % (w/v)
same,% Solubility (w/v),solvent: Methanol,13.75 % (w/v)
same,% Solubility (w/v),solvent: THF,12.6 % (w/v)
same,% Solubility (w/v),solvent: ethylene glycol,2.81 % (w/v)
same,% Solubility (w/v),solvent: hexanes,_~0 % (w/v)
same,% Solubility (w/v),solvent: iso-propanol,6.16 % (w/v)
same,solubility thermodynamic at 2 h,"thermodynamic from solid, solvent: water",5000 µg/mL
